From patent US10751387B2, “Pharmacological therapy for neuronopathic Gaucher disease” (priority 2016, dated 2020)
“And” between values parts separate entries of the source, which are not always exact repeats. Identical values can stand only once.

Key:
CAMK IV = assay: Immunoblot of CAMK IV in 4L;C* cerebrum; assay type: in vivo, mouse; parameters: reference not given here; details: untreated 61% of WT level
Protocol: (§1) Half of mice brain (sagittal cut) tissues were homogenized in M-PER Mammalian Protein Extraction Reagent and subjected to electrophoresis. Ryr proteins (−500 kD) in tissues lysate were separated on 3-8% NuPAGE gel running at 90V for 12 h at 4° C. in acetate buffer. 13-actin was resolved on 4-12% Bis-Tris gel. The proteins were transferred to PVDF membrane using iBlot 2 gel transfer device following manufacturer's instructions. The blots were incubated with anti-mouse Ryr3 monoclonal antibody (1/250) or anti-13-actin (1:5000) overnight at 4° C. in 1.5% BSA/1.5% milk/PBS buffer. LC3, CAMK IV and calmodulin were separated on 16% Tris-glycine gel (Novex) and detected by anti-LC3 (1:1000), anti-CAMK IV (1:500) or anti-CAM (1:1000), respectively. The signals were detected with either ECL detection reagent or AP Conjugate Substrate Kit according to manufacturer's instructions. Band intensities on immunoblots were quantitated by Image J (NIH, Baltimore, Va.).

Ryr1 and Ryr3 = details: reference 58; cited from earlier work
Ryr3 [1] = assay: Immunoblot of Ryr3 in CBE-N2a cells; assay type: cell-based, mouse; details: dantrolene 12.5 μM, untreated 47%
Protocol: (§2) N2a cells were maintained in DMEM/10% FBS (Gibco) medium. Neuronal differentiation of N2a was carried out in the differentiation medium containing 0.5% FBS, 10 μM retinoic acid, 50 ng/ml GDNF (Alomore lab) and 1 mM dbcAMP in DMEM for 3 days (37). The differentiated N2a cells were treated with 2 mM CBE for 5 days in the differentiation medium. […]. The medium with the reagents was changed every 2 days. The differentiation status of the neuronal cells was confirmed by anti-Map2 (mature neuron) or anti-Nestin (undifferentiated neuronal cells) antibody staining. Cell viability after each drug treatment was measured by CellTiter-Fluoirm Cell Viability assay (Promega). […]. The cells were from same passage and treated at the same time for all the experiments.
as §1, with “13-actin was resolved on 4-12% Bis-Tris gel. The proteins were transferred to PVDF membrane using iBlot 2 gel transfer device following manufacturer's instructions. The blots were incubated with anti-mouse Ryr3 monoclonal antibody (1/250) or anti-13-actin (1:5000) overnight at 4° C. in 1.5% BSA/1.5% milk/PBS buffer.” left out

Ryr3 [2] = assay: Immunoblot of Ryr3 in 4L;C* cerebrum; assay type: in vivo, mouse; details: 44 days of age, untreated 9%
Protocol: as §1

[3] = Body and organ weights of treated mice; assay type: in vivo, mouse; details: IP 10 mg/kg three days per week
4L;C* mice [4] = assay: Survival / life span in nGD mouse model; details: IP 10 mg/kg three days per week
Protocol: The data are presented as mean±SEM and were analysed by Student's t-test or one-way ANOVA with post-hoc Tukey test using GraphPad Prism 6. The level of significance was set at P<0.05. Survival analysis was performed using Kaplan-Meier and the Mantel-Cox tests.

4L;C* mice [5] = assay: Gait analysis in nGD mouse model
Protocol: Progression of the neurobehavioural phenotype was assessed by gait analysis to determine sensorimotor function (77,78). Mice were trained to walk through a narrow alley leading into their home-cage. Once trained, paper was placed along the alley floor and the hind paws of each mouse were brushed with nontoxic paint. The mice were then placed at the beginning of the alley. As they walked into their home-cage they left their paw prints on the paper underneath. Stride length and width were determined by measuring the distance between hind paw prints. The 4L;C* and control mice, untreated and non-4L;C* littermates were tested for gait at 30 and 40 days of age.

CBE-N2a cells [6] = assay: Cytosolic calcium level measurement with Fura-2 after caffeine; assay type: cell-based, mouse; details: CBE-N2a cells vs untreated; dantrolene 12.5 μM, ryanodine 10 μM, G6 0.8 μM, 5 days; caffeine 10 mM
Protocol: (§4) N2a cells were maintained in DMEM/10% FBS (Gibco) medium. Neuronal differentiation of N2a was carried out in the differentiation medium containing 0.5% FBS, 10 μM retinoic acid, 50 ng/ml GDNF (Alomore lab) and 1 mM dbcAMP in DMEM for 3 days (37). The differentiated N2a cells were treated with 2 mM CBE for 5 days in the differentiation medium. […] The medium with the reagents was changed every 2 days. […] Cell viability after each drug treatment was measured by CellTiter-Fluoirm Cell Viability assay (Promega). […] The cells were from same passage and treated at the same time for all the experiments.
Intracellular calcium levels were determined using the Fura-2 QBT Calcium Kit (Molecular Devices, Sunnyvale, Calif.) on 96 well plates by M5 SpectraMax plate reader (Molecular Devices). N2a cells were seeded in each well (20,000/well) with differentiation medium (0.5% FBS, DMEM, 10 AM retinoic acid, 1 mM dbcAMP) for 72 h (37). […] The cell medium was replaced every two days. The treated cells were incubated with Fura-2 QBT dye at 37 C for 1 h for Fura-2 QBT uptake (Fura2 QBT® calcium kit protocol, Molecular Devices). Caffeine (10 mM) was used as an ER calcium efflux stimulant in the assay (38,39). The plate reader setting was 340/380 nm (excitation) and 510 nm (emission). Baseline calcium levels were measured prior to caffeine addition (−30 s). Cytosolic calcium levels were recorded every 30 s for duration of 300 s after addition of caffeine. Relative cytosolic calcium levels were determined with the values at 300 s endpoint minus Os baseline. Relative cytosolic calcium level [Fura-2 AF/F (340/380510 nm] for control or treated cells was calculated by Fura-2 fluorescence unit (FU) measured at 340 nm/510 nm (AF=RFU/340 at 300 s end point minus baseline RFU/340 at 0 s) divided by FU at 380 nm/510 nm (F=RFU/380 at 300 s-baseline RFU/380 at 0 s) (Fura2 QBT® calcium kit protocol, Molecular Devices) and normalized to protein level in cells. Data were collected and analysed by SoftMax Pro software (Molecular Devices) and graphical charts were generated by Graphpad Prism 6.0.

CBE-N2a cells [7] = assay: Substrate (GC, GS) levels in nGD cell model (CBE-N2a) by ESI-LC-MS/MS; assay type: cell-based, mouse; details: 5 days
Protocol: as §2
(§3) Glycosphingolipids in mouse brains and N2a cells were extracted with chloroform and methanol as described (83). GC and GS content in the extracts was analysed by ESI-LC-MS/MS using a Waters Quattro Micro API triple quadrupole mass spectrometer (Milford, Mass.) interfaced with Acquity UPLC system as described (35). The concentration of GC and GS in the brain was normalized to mg tissue weight and in the cells was normalized by mg protein in the cell lysate.

N2a cells = assay: Substrate (GC, GS) levels in N2a cells by ESI-LC-MS/MS; assay type: cell-based, mouse; details: G6 0.8 μM, 5 days
Protocol: as §2, §3

CBE-N2a cells [8] = assay: Seahorse mitochondrial function assay (OCR) in cells; assay type: cell-based, mouse; details: CBE-N2a cells vs untreated CBE-N2a; dantrolene 12.5 μM, G6 0.8 μM
Protocol: as §4
Cell numbers were determined using a haemocytometer. Prior to mitochondrial function assay on XF96 Extracellular Flux Analyzers (Seahorse Biosciences), the cells in the wells of XF96 assay plates were washed by gently adding warm assay medium to the side of each well. […] The respiration parameters were calculated by subtracting the average respiration rates before and after the addition of the electron transport inhibitors: oligomycin, FCCP and antimycin A. The parameters include basal respiration (baseline respiration minus antimycin A post injection respiration), ATP production (baseline respiration minus oligomycin post injection respiration), and maximal respiratory (FCCP stimulated respiration minus antimycin A post injection respiration). […]

ryanodine receptor = details: vendor listing (Sigma); cited from earlier work

Compound | CAMK IV expression increase (CAMK IV) | Ryr specificity (Ryr1 and Ryr3) | Ryr3 protein level, % of WT level (Ryr3 [1]) | Ryr3 protein level, % of WT (Ryr3 [2]) | Body or organ weights [3] | Life span / survival prolonged compared to untreated 4L;C* mice (4L;C* mice [4]; 10 mg/kg) | Median survival days (4L;C* mice [4]; untreated 44 days) | Base stride width (4L;C* mice [5]; IP 10 mg/kg three days per week from postnatal day 5, 30 and 40 days of age, vs untreated) | Stride length increase compared to untreated 4L;C* mice (4L;C* mice [5]; IP 10 mg/kg three days per week, 40 days of age) | Cytosolic calcium level above baseline after caffeine [Fura-2 ΔF/F] (CBE-N2a cells [6]) | GC and GS levels (CBE-N2a cells [7]; CBE-N2a cells, dantrolene 12.5 μM, G6 0.8 μM) | GC reduction to % of untreated levels (N2a cells) | Oxygen Consumption Rate (OCR: ATP production, basal respiration, maximal respiration) (CBE-N2a cells [8]) | GS level (CBE-N2a cells [7]; CBE-N2a cells vs untreated) | GC reduction to % of untreated levels (CBE-N2a cells [7]; CBE-N2a cells, G6 0.8 μM) | Ryanodine receptor antagonist concentration (ryanodine receptor)
O=C1CN(/N=C/c2ccc(-c3ccc([N+](=O)[O-])cc3)o2)C(O)=N1 [Dantrolene] | 28% | specific to Ryr1 and Ryr3 | 76% | 77% | did not affect | 12.3% and 12.7% | 50 days | significantly reduced | 30% | significantly reduced | did not affect | – | – | – | – | –
CC(C)(NC(=O)OC1CN2CCC1CC2)c1cccc(-c2ccc(F)cc2)c1 (stereo not drawn) [G6] | – | – | – | – | – | – | – | – | – | significantly lower | – | 7% | significant increases | significantly decreased | 26% | –
Ryanodine | – | – | – | – | – | – | – | – | – | significant reduction | – | – | – | – | – | > 10 µM
